Measurements as given in patent US20140162968A1, “METHOD FOR SCREENING OF AGENT FOR TREATING OR PREVENTING OBESITY” (priority 2011, published 2014).

Key:
neuropeptide Y = assay: Expression of neuropeptide Y in the hypothalamus by Western blotting; assay type: in vivo, rat; conditions: oral anthocyanin 24 mg, 40 days, versus control; Western blot
p-CREB = assay: Expression of p-CREB in the hypothalamus by Western blotting; assay type: in vivo, rat; conditions: oral anthocyanin 24 mg, 40 days, versus control; Western blot
[1] = test system: epididymal white adipose tissue; assay: Epididymal white adipose tissue adipocyte number per unit area (hematoxylin-eosin staining); assay type: in vivo, rat; conditions: epididymal WAT, 40 days, control 18.75
Description: For hematoxylin-eosin staining, an epididymal white adipose tissue (WAT) was fixed at 4° C. for 72 hrs in ice-chilled 1× PBS containing 4% para-formaldehyde, and immersed at 4° C. for 72 hrs in 20% sucrose sucrose phosphate buffer for cryoprotection. The fixed tissue was frozen with O.C.T compound (A. O. USA), and 10 μm coronal sections were made in coronal planes (Leica cryostat CM 3050, Germany). The sections were mounted on a probe-on, positively charged slide at room temperature and stored at −70° C. until use.
The animals bred as in Example 1 were collectively sacrificed at 10:00 AM 40 days after the oral administration, and epididymal white adipose tissue (WAT) was excised from each sacrificed animal and used for comparison of obesity. The epididymal WAT was fixed at 4° C. for 72 hrs in ice-chilled 1× PBS containing 4% para-formaldehyde, and immersed at 4° C. for 72 hrs in a 20% sucrose phosphate buffer for cryoprotection. The fixed tissue was frozen with O.C.T compound (A. O. USA), and 10 μm coronal sections were made in coronal planes (Leica cryostat CM 3050, Germany). The sections were mounted on probe-on, positively charged slides and thawed at room temperature for 3 hrs. […] Cover slips were mounted on the slides which were observed under a […] at 400× magnification.

PKA-α = assay: Expression of PKA-α in the hypothalamus by Western blotting; assay type: in vivo, rat; conditions: oral anthocyanin 24 mg, 40 days, versus control; Western blot
GABAB receptor = assay: Expression of GABAB receptor in the hypothalamus by Western blotting; assay type: in vivo, rat; conditions: rats administered anthocyanin orally, 40 days, versus control; Western blot densitometry
Description: To examine the effect of an obesity prevention and treatment agent on the expression of GABAB receptor, the animals maintained as in Example 1 were collectively sacrificed at 10:00 AM 40 days after the oral administration, and the hypothalamus was excised from each of them. The hypothalamic sample was homogenized in 0.2 M PBS containing a protease inhibitor cocktail. Protein levels were measured using a Bio-Rad protein analysis solution, and after two rounds of ultracentrifugation at 4° C. and 12,000 rpm for 20 min, the supernatants containing proteins were separated. […] This membrane was blocked with 5% (v/v) skim milk to reduce non-specific binding, and incubated with a primary goat anti-GABABR1 antibody (1:200; Santa Cruz Biotechnology, Santa Cruz, Calif., USA) and an anti-beta-actin antibody for quantitative comparison, followed by immune reaction with a secondary HRP (horseradish peroxidase)-conjugated anti-goat and anti-rabbit IgG (1:1000; Santa Cruz Biotechnology, Santa Cruz, Calif., USA). Protein levels were determined by chemiluminescence using ECL-detecting reagent (Amersham Pharmacia Biotech, Western blotting detection reagents). Western blots on the X-ray film were analyzed by densitometry using computer-based Sigma Gel (SPSS Inc. Chicago, USA), and the results are shown in FIG. 3.

[2] = Body weight change and daily food uptake in rats orally administered anthocyanin for 40 days; assay type: in vivo, rat; conditions: for weight increase: male Sprague-Dawley rats, control 79.33 g; for weight increase / weight at end of period: 40 days; for weight at end of period: control 116.33 g
Description: For use in assay for the preventive and therapeutic effect of anthocyanin on obesity, male Sprague-Dawley rats, 60 days old (the Experimental Animal Breeding Center of the Gyeongsang National University, Jinju, Korea)) were divided groups of four which were then orally administered with anthocyanin at a dose of 6 mg and 24 mg, respectively, or not administered with anthocyanin for a control. They were maintained for 40 days in a temperature-controlled condition with lighting 06:00-20:00. While being maintained, the rats in each group were monitored for weight change and daily food uptake, and the results are shown in FIG. 1.

[3] = test system: lipase in the small intestines; conditions: background statement; cited from earlier work

Compound	expression level of neuropeptide Y in the hypothalamus (neuropeptide Y)	expression level of p-CREB in the hypothalamus (p-CREB)	number of adipocytes per unit area ([1]; oral anthocyanin 6 mg)	number of adipocytes per unit area ([1]; oral anthocyanin 24 mg)	expression level of PKA-α in the hypothalamus (PKA-α)	expression level of GABAB receptor in the hypothalamus (GABAB receptor)	weight increase ([2]; oral anthocyanin 6 mg)	weight increase ([2]; oral anthocyanin 24 mg)	weight at end of period ([2]; oral anthocyanin 6 mg, from 32.33 g)	weight at end of period ([2]; oral anthocyanin 24 mg, from 28.33 g)	daily food uptake ([2]; oral anthocyanin 24 mg, control 20.03 g)	reduction of fat absorption [3]
anthocyanin	decreased	increase	22.47 cells/250 mm^2	22.8 cells/250 mm^2	decrease	increased	69 g	69.67 g	101.33 g	98 g	16.43 g	
CCCCCCCCCCC[C@@H](C[C@@H]1OC(=O)[C@H]1CCCCCC)OC(=O)[C@H](CC(C)C)NC=O [Orlistat]												about 30%
